# Experimental data reported in patent US20250136652A1, “FUSION PROTEIN FOR TARGETING RECOMBINANT PROTEINS FOR DEGRADATION” (The Regents of the University of California, priority 2022, published 2025).
# Experiments:
# [1] = test system: green fluorescent protein (GFP) target; assay: STUD-induced degradation of GFP target in Jurkat T cells, flow cytometry; assay type: cell-based; details: GFP normalized by tagBFP, 72 hours following removal of lentivirus
# Experimental: Jurkat cells were lentivirally transduced with two plasmids. The first encodes a STUD, or control with a mutated degron, and a mCherry transduction marker separated by a 2A element and the second encodes GFP target protein and a BFP transduction marker separated by a 2A element. In the case of the SynZip STUD, the GFP target is fused to a heterodimeric SynZip protein complementary to the binding domain on the STUD. These transduced cells are analyzed for fluorescence by flow cytometry […] after removal of virus. Cells are first gated on these transduction markers to isolate relevant populations. Then, normalized GFP fluorescence is calculated by normalizing each cell's GFP fluorescence, as obtained by flow cytometry, by its BFP fluorescence. Then, the median normalized GFP fluorescence of each flow cytometry distribution is calculated and shown in the bar plot. Each dot represents the mean of the median normalized GFP fluorescence of three technical replicates in three independent experiments. […]
# Either the SynZip STUD and the antiGFP nanobody STUD in Jurkat T cells alongside a plasmid encoding either GFP fused to a complementary SynZip or GFP alone, respectively (FIG. 2B) were lentivirally transduced. 72 hours following removal of lentivirus, we assay for GFP fluorescence by flow cytometry. […] Representative histograms of unnormalized GFP fluorescence are also shown for reference. […]
# [2] = test system: synthetic drug-inducible transcription factor (SynTF) fused to a SynZip; assay: STUD negative feedback circuit regulating SynTF in Jurkat T cells, GFP reporter; assay type: cell-based; details: GZV 72 hours at 37 C
# Text: FIG. 6A: STUDs can be composed into negative feedback circuit to regulate synthetic transcription factor (SynTF). Cartoon diagram of plasmids used in negative feedback circuit transduced into Jurkat T cells. Synthetic transcription factors used in this work (grey) are made up of a transcriptional activation domain (AD) and a DNA binding domain (DBD) separated by a NS3 protease. In the absence of the NS3 inhibitor grazoprevir (GZV), the TF is destabilized and non-functional. On the other hand, the addition of GZV stabilizes the TF and allows for transcription of the gene cassette downstream of the SynTF promoter (pSynTF). Three types of circuits were designed: (1) A negative feedback circuit that has the SynTF driving expression of the GFP reporter and the STUD which results in degradation of the SynTF and shut off the circuit. […]
# The circuit has three components: (1) a synthetic drug-inducible transcription factor (SynTF) fused to a SynZip, (2) a GFP reporter, and (3) a SynZip STUD that targets the SynTF (FIG. 6A). […] After incubation, we assay for GFP fluorescence by flow cytometry and gate on cells expressing the co-transduction markers (mCherry and tagBFP) for both plasmids relative to a untransduced control. […]
substance,measurement,setting,value
"SynZip STUD: Fusion protein SEQ ID NO: 413: lysine-free modified synZIP18 heterodimerization domain, flexible linker, C-terminal RRRG degron; 55 amino acids (SIAATLENDLARLENENARLERDIANLERDLARLEREEAYFGSGSGSGSGSRRRG)",fold change of median normalized GFP fluorescence,[1],approximately 42 fold
same,inhibition of SynTF (fold change of median GFP relative to DMSO),[2],inhibits the SynTF
